# Reference: US20160081986A1, “LONG-ACTING SPIRO-ISOXAZOLINE ANTIPARASITIC COMPOSITIONS” (priority 2013, published 2016)
# What was measured:
# [1] = tested on: ticks (Ixodes scapularis); experiment: 6 Month PKPD study: efficacy against ticks on beagle dogs; assay type: in vivo; details: for Geometric mean live ticks (LT): dogs, 25 mg/kg topical on Day 0; for % Reduction live ticks: vs control
# Protocol: (§1) The spiro-azetidine isoxazoline, (S)-1-(5′-(5-(3,5-dichloro-4-fluorophenyl)-5-(trifluoromethyl)-4,5-dihydroisoxazol-3-yl)-3′H-spiro[azetidine-3,1′-isobenzofuran]-1-yl)-2-(methylsulfonyl)ethanone (Compound 1) was used to conduct an in-vivo long-acting efficacy study.
# (§2) The study assessed the efficacy of a 25 mg/kg (0.1 mL/kg) topical dose of Compound 1 versus control against fleas (Ctenocephalides felis) and ticks (Ixodes scapularis) on beagle dogs. The formulation was butyl digol:dimethyl isosorbide (90:10 v/v %), selected as it had excellent solubility for Compound 1. Eight male and eight female dogs were acclimated to the testing facility. On Day 0 of the study, each animal received a topical dose of Compound 1 or control (formulation without Compound 1). On Days 56, 89, 117, 145, and 173, animals were artificially infested with about 100 adult unfed fleas. Flea counts were conducted 24 hours post infestation. At each count, all fleas were removed from the dogs. On Days 55, 88, 116, 144, and 172, all dogs were infested with about 50 viable, unfed adult ticks. Tick counts were conducted 48 hours post infestation. At each count, all ticks were removed from the dogs. Further, some hair was removed from the left or right shoulder from three individual dogs from each treatment group 26 days post dose. The hair from each dog was equally divided and placed into two separate 20 mL scintillation vials. Ten female Rhipicephalus sanguineus and ten female Ixodes scapularis ticks were placed in the vials with the hair. Ticks were evaluated for viability at 2-4 hours, 24 hours, 48 hours and 72 hours post vial infestation.
# [2] = tested on: fleas (Ctenocephalides felis); experiment: 6 Month PKPD study: efficacy against fleas on beagle dogs; assay type: in vivo; details: for Geometric mean live fleas (LF): dogs, 25 mg/kg topical on Day 0; for % Reduction live fleas: vs control
# Protocol: as §1, §2
# Ixodes scapularis ticks = experiment: Tick infested hair samples from treated dogs (contact activity); assay type: in vivo; details: for # Dead Ticks (mean): hair taken 26 days post dose, ten ticks per vial; for % Reduction: vs control
# Protocol: as §2
# [3] = tested on: Rhipicephalus sanguineus ticks; experiment: as above; assay type: in vivo; details: for # Dead Ticks (mean): hair taken 26 days post dose, ten ticks per vial; for % Reduction: vs control
# Protocol: as §2
# [4] = Franz diffusion cell screening (FDCS), flux and Kp; assay type: in vitro ADME, canine
# Protocol: FDCS yields flux rates and permeation constants for the formulations through a fixed membrane (e.g., canine-, feline-, and bovine-skin).
# Canine skin, stored at −20° C. for a maximum of 1 year, was thawed, trimmed, and dermatomed to give a thin layer of skin about 0.8-1.5 mm in thickness. The skin was mounted onto the Franz diffusion cell and equilibrated with the receptor media, 50:50 v/v % EtOH:Milli-Q water, for 2 to 4 hours. The receptor media was selected to provide sink conditions for Compound 1. Once equilibrated, test formulations were applied to the donor side, generally 50 μL/cm^2. Samples were generally obtained at 12, 24, 30, 36, 42, and 48 hours, but can be obtained at any six timepoints out to 72 hours. A control vehicle of with Compound 1 (250 mg/mL) in butyl digol:dimethyl isosorbide (90:10 v/v %) was included in every FDCS study.
# Post experiment samples were stored at 4° C. until analysed for Compound 1 concentration by LCMS. Cumulative amount of Compound 1 in ng/cm^2 was calculated and plotted versus time. The gradient of straight line portion of the graph yields the flux value (ng/cm^2/hr) for a given formulation, FIG. 1. The flux can be divided by the applied concentration of Compound 1 to yield the permeability constant Kp (cm/hr)—often converted to a log 10 scale.
# [5] = Solubility of Compound 1 in the formulation; assay type: physicochemical; details: butyl digol:dimethyl isosorbide (90:10 v/v %)
# Protocol: as §2
# [6] = 25 mg/kg topical, butyl digol and dimethyl isosorbide, for 5 months
smiles,measurement,setting,value
"CS(=O)(=O)CC(=O)N1CC2(C1)OCc1cc(C3=NO[C@@](c4cc(Cl)c(F)c(Cl)c4)(C(F)(F)F)C3)ccc12 [Compound 1, (S)-1-(5′-(5-(3,5-dichloro-4-fluorophenyl)-5-(trifluoromethyl)-4,5-dihydroisoxazol-3-yl)-3′H-spiro[azetidine-3,1′-isobenzofuran]-1-yl)-2-(methylsulfonyl)ethanone]",control of ticks (reduction in geometric mean counts vs placebo),[1]; [6],> 95%
same,Geometric mean live ticks (LT),[1]; 57 days,0.0
same,Geometric mean live ticks (LT),[1]; 90 days,0.0
same,Geometric mean live ticks (LT),[1]; 118 days,0.1
same,Geometric mean live ticks (LT),[1]; 146 days,0.3
same,Geometric mean live ticks (LT),[1]; 174 days,4.5
same,% Reduction live ticks,"[1]; 25 mg/kg topical, 57 days",100%
same,% Reduction live ticks,"[1]; 25 mg/kg topical, 90 days",100%
same,% Reduction live ticks,"[1]; 25 mg/kg topical, 118 days",99.1%
same,% Reduction live ticks,"[1]; 25 mg/kg topical, 146 days",97.3%
same,% Reduction live ticks,"[1]; 25 mg/kg topical, 174 days",64.3%
same,control of fleas (reduction in geometric mean counts vs placebo),[2]; [6],> 95%
same,Geometric mean live fleas (LF),[2]; 57 days,0.2
same,Geometric mean live fleas (LF),[2]; 90 days,0.0
same,Geometric mean live fleas (LF),[2]; 118 days,0.9
same,Geometric mean live fleas (LF),[2]; 146 days,0.8
same,Geometric mean live fleas (LF),[2]; 174 days,13
same,% Reduction live fleas,"[2]; 25 mg/kg topical, 57 days",98.6%
same,% Reduction live fleas,"[2]; 25 mg/kg topical, 90 days",100%
same,% Reduction live fleas,"[2]; 25 mg/kg topical, 118 days",98.6%
same,% Reduction live fleas,"[2]; 25 mg/kg topical, 146 days",98.3%
same,% Reduction live fleas,"[2]; 25 mg/kg topical, 174 days",74.3%
same,duration of contact activity against ticks following the topical dose,"Ixodes scapularis ticks; hair samples, I. scapularis and R. sanguineus",at least 26 days
same,# Dead Ticks (mean),Ixodes scapularis ticks; 2-4 hours post infestation,0
same,# Dead Ticks (mean),Ixodes scapularis ticks; 24 hours post infestation,3.7
same,# Dead Ticks (mean),Ixodes scapularis ticks; 48 hours post infestation,7.3
same,# Dead Ticks (mean),Ixodes scapularis ticks; 72 hours post infestation,9.3
same,% Reduction,Ixodes scapularis ticks; 2-4 hours post infestation,0.0%
same,% Reduction,Ixodes scapularis ticks; 24 hours post infestation,72.7%
same,% Reduction,Ixodes scapularis ticks; 48 hours post infestation,86.4%
same,% Reduction,Ixodes scapularis ticks; 72 hours post infestation,85.7%
same,# Dead Ticks (mean),[3]; 2-4 hours post infestation,0
same,# Dead Ticks (mean),[3]; 24 hours post infestation,9.0
same,# Dead Ticks (mean),[3]; 48 hours post infestation,9.3
same,# Dead Ticks (mean),[3]; 72 hours post infestation,9.7
same,% Reduction,[3]; 2-4 hours post infestation,0.0%
same,% Reduction,[3]; 24 hours post infestation,100.0%
same,% Reduction,[3]; 48 hours post infestation,100.0%
same,% Reduction,[3]; 72 hours post infestation,100.0%
same,flux rates and permeation constants with increasing dimethyl isosorbide (FIG. 3),"[4]; 250 mg/mL, butyl digol:dimethyl isosorbide 90:10, 80:20, 60:40 v/v %",small reduction
same,flux rates and permeation constants versus oleic acid level (FIG. 4),"[4]; 250 mg/mL, butyl digol:oleic acid 95:5, 90:10, 80:20 v/v %",increase with increasing oleic acid levels
same,flux versus drug load (FIG. 2),"[4]; 50, 150 and 250 mg/mL in butyl digol:dimethyl isosorbide 90:10 v/v %",increased drug load correlates to increased flux
same,solubility for Compound 1,[5],excellent
